From ChEMBL document CHEMBL1287675, “Substituted spiro [2.3'] oxindolespiro [3.2″]-5,6-dimethoxy-indane-1″-one-pyrrolidine analogue as inhibitors of acetylcholinesterase” (Bioorg Med Chem Lett, 2010)

The compounds below were run against Acetylcholinesterase (Homo sapiens, UniProt P22303) (assay: Inhibition of human acetyl cholinesterase by Ellmann's method).
Chain of Acetylcholinesterase (P22303 whole entry): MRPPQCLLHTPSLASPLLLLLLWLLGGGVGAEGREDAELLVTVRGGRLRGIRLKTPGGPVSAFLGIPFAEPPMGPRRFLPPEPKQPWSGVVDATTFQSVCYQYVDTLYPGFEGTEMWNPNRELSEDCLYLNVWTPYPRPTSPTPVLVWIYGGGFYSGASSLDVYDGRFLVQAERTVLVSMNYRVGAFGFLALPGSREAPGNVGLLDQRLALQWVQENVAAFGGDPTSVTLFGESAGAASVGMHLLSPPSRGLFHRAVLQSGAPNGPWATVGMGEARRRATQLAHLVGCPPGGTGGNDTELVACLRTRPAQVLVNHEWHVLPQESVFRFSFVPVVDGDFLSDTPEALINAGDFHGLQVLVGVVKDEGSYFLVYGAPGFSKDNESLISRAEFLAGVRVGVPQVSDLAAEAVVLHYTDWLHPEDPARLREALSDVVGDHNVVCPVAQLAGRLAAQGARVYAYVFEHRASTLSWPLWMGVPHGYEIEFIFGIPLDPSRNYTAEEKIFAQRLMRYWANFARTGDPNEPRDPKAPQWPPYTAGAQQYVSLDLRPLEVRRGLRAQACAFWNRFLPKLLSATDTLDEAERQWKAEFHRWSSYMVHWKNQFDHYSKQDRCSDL
`COc1cc2c(cc1OC)C(=O)C1(C2)C(c2ccc(F)cc2)CN(C)C12C(=O)Nc1ccc([N+](=O)[O-])cc12` (centres undefined) gave an IC50 of 8.6 µM.
`COc1cc2c(cc1OC)C(=O)C1(C2)C(c2ccccc2Cl)CN(C)C12C(=O)Nc1ccc([N+](=O)[O-])cc12` (centres undefined) was tested, and the IC50 was 7.6 µM.
Work on `COc1cc2c(cc1OC)C(=O)C1(C2)C(c2ccccc2)CN(C)C12C(=O)Nc1ccccc12` (centres undefined) yielded an IC50 of 3.12 µM.
For `COc1cc2c(cc1OC)C(=O)C1(C2)C(c2ccc(F)cc2)CN(C)C12C(=O)Nc1ccc(Cl)cc12` (centres undefined), the IC50 was 3.7 µM.
In the case of `COc1cc2c(cc1OC)C(=O)C1(C2)C(c2ccccc2Cl)C(c2ccccc2)NC12C(=O)Nc1ccc(Cl)cc12` (centres undefined), the IC50 is reported as 12.2 µM.
For `COc1cc2c(cc1OC)C(=O)C1(C2)C(c2ccccc2Cl)C(c2ccccc2)NC12C(=O)Nc1ccccc12` (centres undefined), the IC50 was 7.3 µM.
Work on `COc1ccc(C2C(c3ccccc3)NC3(C(=O)Nc4ccc([N+](=O)[O-])cc43)C23Cc2cc(OC)c(OC)cc2C3=O)cc1OC` (centres undefined) yielded an IC50 of 15.4 µM.
Compound `COc1ccc(C2C(c3ccccc3)NC3(C(=O)Nc4ccc(Cl)cc43)C23Cc2cc(OC)c(OC)cc2C3=O)cc1OC` (centres undefined) has an IC50 of 8.26 µM.
`COc1cc2c(cc1OC)C(=O)C1(C2)C(c2ccccc2Cl)C(c2ccccc2)NC12C(=O)Nc1ccc([N+](=O)[O-])cc12` (centres undefined) gave an IC50 of 4.2 µM.
With `COc1ccc(C2CN(C)C3(C(=O)Nc4ccc([N+](=O)[O-])cc43)C23Cc2cc(OC)c(OC)cc2C3=O)cc1OC` (centres undefined) the IC50 was 6.1 µM.
Compound `COc1cc2c(cc1OC)C(=O)C1(C2)C(c2ccccc2)C(c2ccccc2)NC12C(=O)Nc1ccc([N+](=O)[O-])cc12` (centres undefined) has an IC50 of 3.7 µM.
`COc1cc2c(cc1OC)C(=O)C1(C2)C(c2ccccc2)C(c2ccccc2)NC12C(=O)Nc1ccc(Cl)cc12` (centres undefined) was tested, and the IC50 was 7.26 µM.
`COc1cc2c(cc1OC)C(=O)C1(C2)C(c2ccc(F)cc2)C(c2ccccc2)NC12C(=O)Nc1ccc(Cl)cc12` (centres undefined) showed an IC50 of 9.86 µM.
For `COc1cc2c(cc1OC)C(=O)C1(C2)C(c2ccccc2Cl)CN(C)C12C(=O)Nc1ccccc12` (centres undefined), the IC50 was 4.3 µM.
Compound `COc1cc2c(cc1OC)C(=O)C1(C2)C(c2ccccc2)C(c2ccccc2)NC12C(=O)Nc1ccccc12` (centres undefined) has an IC50 of 5.12 µM.
For `COc1ccc(C2CN(C)C3(C(=O)Nc4ccc(Cl)cc43)C23Cc2cc(OC)c(OC)cc2C3=O)cc1OC` (centres undefined), the IC50 was 4.2 µM.
Compound `COc1cc2c(cc1OC)C(=O)C1(C2)C(c2ccccc2)CN(C)C12C(=O)Nc1ccc([N+](=O)[O-])cc12` (centres undefined) has an IC50 of 13.2 µM.
In the case of `COc1cc2c(cc1OC)C(=O)C1(C2)C(c2ccccc2)CN(C)C12C(=O)Nc1ccc(Cl)cc12` (centres undefined), the IC50 is reported as 11.2 µM.
With `COc1cc2c(cc1OC)C(=O)C1(C2)C(c2ccc(F)cc2)C(c2ccccc2)NC12C(=O)Nc1ccccc12` (centres undefined) the IC50 was 6.86 µM.
Work on `COc1cc2c(cc1OC)C(=O)C1(C2)C(c2ccc(F)cc2)CN(C)C12C(=O)Nc1ccccc12` (centres undefined) yielded an IC50 of 2.12 µM.
Work on `COc1ccc(C2CN(C)C3(C(=O)Nc4ccccc43)C23Cc2cc(OC)c(OC)cc2C3=O)cc1OC` (centres undefined) yielded an IC50 of 4.2 µM.
`COc1cc2c(cc1OC)C(=O)C1(C2)C(c2ccc(F)cc2)C(c2ccccc2)NC12C(=O)Nc1ccc([N+](=O)[O-])cc12` (centres undefined) showed an IC50 of 14.3 µM.
Work on `COc1cc2c(cc1OC)C(=O)C1(C2)C(c2ccccc2Cl)CN(C)C12C(=O)Nc1ccc(Cl)cc12` (centres undefined) yielded an IC50 of 6.6 µM.
In the case of `COc1ccc(C2C(c3ccccc3)NC3(C(=O)Nc4ccccc43)C23Cc2cc(OC)c(OC)cc2C3=O)cc1OC` (centres undefined), the IC50 is reported as 5.2 µM.
